Paper PMC5581033, “Targeting aldehyde dehydrogenase activity in head and neck squamous cell carcinoma with a novel small molecule inhibitor” (Oncotarget, 2017)

How the values were obtained:
Assay in all cases: purified recombinant isozyme activity assay, NADH formation at […] nm with acetaldehyde and NAD+
Assay type in all cases: biochemical
ALDH3A1 = target: T1, ALDH3A1 (Homo sapiens, UniProt P30838)
T1 sequence (P30838 2-453): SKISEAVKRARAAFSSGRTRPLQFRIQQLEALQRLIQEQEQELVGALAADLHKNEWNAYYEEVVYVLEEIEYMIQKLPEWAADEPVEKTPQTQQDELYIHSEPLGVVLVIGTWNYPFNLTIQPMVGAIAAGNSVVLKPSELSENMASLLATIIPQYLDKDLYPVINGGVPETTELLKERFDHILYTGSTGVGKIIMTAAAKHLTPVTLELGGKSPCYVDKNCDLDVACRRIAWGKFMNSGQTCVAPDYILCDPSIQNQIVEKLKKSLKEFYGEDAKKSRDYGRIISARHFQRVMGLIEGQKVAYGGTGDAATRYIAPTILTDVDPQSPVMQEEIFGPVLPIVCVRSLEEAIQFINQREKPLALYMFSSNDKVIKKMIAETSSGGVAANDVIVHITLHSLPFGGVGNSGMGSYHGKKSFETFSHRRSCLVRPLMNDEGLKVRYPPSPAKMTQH

ALDH2 = target: T2, ALDH2 (Homo sapiens, UniProt P05091)
T2 sequence (P05091 18-517): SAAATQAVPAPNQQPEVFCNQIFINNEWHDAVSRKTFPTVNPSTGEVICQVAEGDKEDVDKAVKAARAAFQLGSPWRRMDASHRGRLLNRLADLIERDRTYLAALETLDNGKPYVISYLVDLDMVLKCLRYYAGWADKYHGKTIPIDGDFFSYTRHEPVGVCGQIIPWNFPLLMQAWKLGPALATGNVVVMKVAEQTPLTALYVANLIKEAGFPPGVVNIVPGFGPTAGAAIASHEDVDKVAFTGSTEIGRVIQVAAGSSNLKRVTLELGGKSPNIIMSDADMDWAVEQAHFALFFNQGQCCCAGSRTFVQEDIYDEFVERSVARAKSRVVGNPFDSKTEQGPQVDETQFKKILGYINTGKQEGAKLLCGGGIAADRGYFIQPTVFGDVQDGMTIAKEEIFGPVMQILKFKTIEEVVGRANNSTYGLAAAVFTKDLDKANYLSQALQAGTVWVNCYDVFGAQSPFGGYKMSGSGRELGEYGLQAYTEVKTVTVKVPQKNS

ALDH1A1 = target: T3, ALDH1A1 (Homo sapiens, UniProt P00352)
T3 sequence (P00352 2-501): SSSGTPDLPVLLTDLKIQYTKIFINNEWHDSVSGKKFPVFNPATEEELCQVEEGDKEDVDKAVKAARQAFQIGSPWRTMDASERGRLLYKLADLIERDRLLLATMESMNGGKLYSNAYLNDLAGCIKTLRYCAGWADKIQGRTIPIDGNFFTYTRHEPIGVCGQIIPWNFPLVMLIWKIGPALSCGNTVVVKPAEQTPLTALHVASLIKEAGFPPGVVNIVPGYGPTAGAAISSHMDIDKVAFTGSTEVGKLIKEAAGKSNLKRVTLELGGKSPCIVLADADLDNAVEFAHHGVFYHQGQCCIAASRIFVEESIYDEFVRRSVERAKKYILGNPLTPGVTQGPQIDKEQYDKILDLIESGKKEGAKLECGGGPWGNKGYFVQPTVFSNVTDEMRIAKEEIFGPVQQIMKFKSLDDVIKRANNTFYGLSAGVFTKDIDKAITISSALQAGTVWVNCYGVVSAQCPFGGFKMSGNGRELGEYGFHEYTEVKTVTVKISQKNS

Structure (SMILES): CN(C)CCC(=O)c1ccc(Br)cc1 [Aldi-6, 3-(Dimethylamino)-4′-bromopropiophenone]
- IC50 (ALDH3A1): 1000 nM
- IC50 (ALDH2): 800 nM
- IC50 (ALDH1A1): 600 nM
